# Results published in the supplement of paper PMC10307832.
# What was measured:
# Test in all cases: relative viability (nuclei count vs DMSO), 5 days (fraction); higher = more cells survive
# Ispinesib + OSI-027 = compound: Cc1ccc(C(=O)N(CCCN)[C@@H](c2nc3cc(Cl)ccc3c(=O)n2Cc2ccccc2)C(C)C)cc1 [Ispinesib] + COc1cccc2cc(-c3nc([C@H]4CC[C@H](C(=O)O)CC4)n4ncnc(N)c34)[nH]c12 [OSI-027] (partner 0.5 µM)
# In short: (§1)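 After 5 days of treatment, lung cancer cells in 1536-well plates were fixed and stained in a single step (final 0.05% Triton X-100, 1% formaldehyde, 1 ug/ml Hoechst) and their nuclei counted on 4× images. Treatment had been applied by pin tool the day after seeding as one drug alone or as a fixed anchor-drug dose with five library-drug doses (not always all listed) in √10 steps. Relative viability is the nuclei count of treated wells divided by that of vehicle wells, and values are medians of duplicate plates.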
# Ispinesib + Trametinib = compound: Cc1ccc(C(=O)N(CCCN)[C@@H](c2nc3cc(Cl)ccc3c(=O)n2Cc2ccccc2)C(C)C)cc1 [Ispinesib] + CC(=O)Nc1cccc(-n2c(=O)n(C3CC3)c(=O)c3c(Nc4ccc(I)cc4F)n(C)c(=O)c(C)c32)c1 [Trametinib] (partner 0.02 µM)
# In short: as §1
# Ispinesib + Alpelisib = compound: Cc1ccc(C(=O)N(CCCN)[C@@H](c2nc3cc(Cl)ccc3c(=O)n2Cc2ccccc2)C(C)C)cc1 [Ispinesib] + Cc1nc(NC(=O)N2CCC[C@H]2C(N)=O)sc1-c1ccnc(C(C)(C)C(F)(F)F)c1 [Alpelisib] (partner 2 µM)
# In short: as §1
# Ispinesib + Pictilisib = compound: Cc1ccc(C(=O)N(CCCN)[C@@H](c2nc3cc(Cl)ccc3c(=O)n2Cc2ccccc2)C(C)C)cc1 [Ispinesib] + CS(=O)(=O)N1CCN(Cc2cc3nc(-c4cccc5[nH]ncc45)nc(N4CCOCC4)c3s2)CC1 [Pictilisib] (partner 1 µM)
# In short: as §1
Cell Line,relative viability (Ispinesib + OSI-027; first compound 0.001 µM),relative viability (Ispinesib + OSI-027; first compound 0.003162 µM),relative viability (Ispinesib + OSI-027; first compound 0.01 µM),relative viability (Ispinesib + OSI-027; first compound 0.03162 µM),relative viability (Ispinesib + OSI-027; first compound 0.1 µM),relative viability (Ispinesib + Trametinib; first compound 0.001 µM),relative viability (Ispinesib + Trametinib; first compound 0.003162 µM),relative viability (Ispinesib + Trametinib; first compound 0.01 µM),relative viability (Ispinesib + Trametinib; first compound 0.03162 µM),relative viability (Ispinesib + Trametinib; first compound 0.1 µM),relative viability (Ispinesib + Alpelisib; first compound 0.001 µM),relative viability (Ispinesib + Alpelisib; first compound 0.003162 µM),relative viability (Ispinesib + Alpelisib; first compound 0.01 µM),relative viability (Ispinesib + Alpelisib; first compound 0.03162 µM),relative viability (Ispinesib + Alpelisib; first compound 0.1 µM),relative viability (Ispinesib + Pictilisib; first compound 0.001 µM),relative viability (Ispinesib + Pictilisib; first compound 0.003162 µM),relative viability (Ispinesib + Pictilisib; first compound 0.01 µM),relative viability (Ispinesib + Pictilisib; first compound 0.03162 µM),relative viability (Ispinesib + Pictilisib; first compound 0.1 µM)
LCLC-97TM1,0.629,0.616,0.553,0.239,0.12,0.219,0.238,0.219,0.169,0.137,0.282,0.23,0.324,0.211,0.159,0.251,0.187,0.192,0.111,0.126
LCLC-103H,0.562,0.585,0.527,0.366,0.357,0.724,0.7,0.723,0.667,0.654,0.986,1.07,1.03,0.833,0.943,0.6,0.624,0.682,0.495,0.572
LK-2,0.2,0.256,0.194,0.176,0.213,0.742,0.819,0.801,0.751,0.516,1.33,0.97,1.23,1.07,0.412,0.645,0.632,0.744,0.438,0.443
LOU-NH91,0.72,0.776,0.83,0.59,0.236,0.772,0.774,0.814,0.725,0.309,0.724,0.705,0.751,0.607,0.553,0.482,0.54,0.508,0.427,0.256
LU99A,0.268,0.294,0.299,0.264,0.189,0.514,0.579,0.577,0.335,0.352,0.527,0.572,0.66,0.318,0.208,0.358,0.286,0.287,0.223,0.161
LXF-289,0.813,0.834,0.806,0.593,0.0721,0.667,0.729,0.762,0.629,0.606,1.06,1.05,1.16,0.993,0.733,0.846,0.812,0.909,0.709,0.123
NCI-H23,0.581,0.656,0.808,0.235,0.201,0.372,0.472,0.32,0.358,0.208,0.547,0.679,0.785,0.731,0.459,0.441,0.479,0.557,0.251,0.189
NCI-H322M,0.621,0.529,0.549,0.448,0.331,0.529,0.586,0.449,0.514,0.467,0.866,0.889,0.846,0.467,0.66,0.527,0.489,0.54,0.44,0.397
NCI-H358,0.999,0.837,1.02,0.392,0.129,0.126,0.131,0.128,0.115,0.106,0.885,0.874,0.989,0.573,0.283,0.298,0.359,0.377,0.227,0.245
NCI-H441,0.582,0.738,0.517,0.175,0.285,0.47,0.458,0.284,0.255,0.212,0.934,0.848,0.947,0.238,0.215,0.441,0.505,0.468,0.145,0.209
NCI-H460,0.787,0.835,1.03,0.417,0.0414,0.225,0.207,0.218,0.0463,0.0454,0.584,0.45,0.667,0.0767,0.0288,0.415,0.425,0.449,0.229,0.0764
NCI-H520,0.249,0.218,0.276,0.19,0.169,0.775,0.663,0.557,0.229,0.221,1.04,0.98,0.767,0.276,0.243,0.353,0.276,0.295,0.181,0.172
NCI-H596,0.818,0.674,0.951,0.625,0.29,0.745,0.876,0.799,0.83,0.706,0.563,0.427,0.583,0.458,0.394,0.416,0.377,0.372,0.361,0.251
